Results reported in patent publication US12285455B2, “Controlled-release and stratified cyclodextrin inclusion complex vehicles” (CZAP RESEARCH AND DEVELOPMENT, LLC., priority 2016, dated 2025).

Test system: myelofibrosis
Assay: treatment of myelofibrosis, case history
Assay type: in vivo, human
Conditions: following initiation of treatment; approximately every 10 days before treatment
Protocol: This example illustrates the treatment of symptoms associated with myelofibrosis. A patient suffering from myelofibrosis was treated with a quercetin CD formulation. The formulation was prepared from a powder of quercetin (Glanbia Nutritionals) formed as an inclusion complex with gamma cyclodextrin, dried and mixed with amylase powder. At the initiation of quercetin CD treatment, the patient was in need of blood transfusions approximately every 10 days. Following initiation of the quercetin CD treatment, the patient was able to go 20 days between transfusions.

O=c1c(O)c(-c2ccc(O)c(O)c2)oc2cc(O)cc(O)c12 [quercetin]
interval between blood transfusions: did not get this result
